Laboratory results as given in patent publication US20260248881A1, “PHARMACEUTICAL COMPOSITION COMPRISING FOXM1 INHIBITOR AND IMMUNE CHECKPOINT INHIBITOR FOR PREVENTING OR TREATING CANCER” (National Cancer Center, priority 2022, published 2026).

Legend:
H1299 and PC9 cells [1] = experiment: Apoptotic cell death assay (Annexin V/PI staining); type: cell-based, human; details: 5 μM TST or siFOXM1
Description: H1299 and PC9 cells (1×10^5) were cultured in 6-well plates, transfected with siFOXM1 or NC siRNA or treated with 5 μM TST or dimethyl sulfoxide (DMSO), and then stained using fluorescein isothiocyanate (FITC) Annexin V Apoptosis Detection Kit I (#556547; BD Biosciences). Cells were analyzed within 1 hour to reduce side effects due to staining, and flow cytometry was performed using a FACSVerse cell analyzer (BD Biosciences).

H1299 and PC9 cells [2] = experiment: Cell proliferation assay (WST-1); type: cell-based, human; details: 5 μM TST or siRNA knockdown; 24, 48, and 72 hours; both cell lines
Description: H1299 and PC9 cells were grown in 96-well plates, treated with 5 µM TST, or transfected with siFOXM1 at a density of 3,000 cells/well […]. Cell proliferation was recorded at the specified times by adding 4-[3-(4-iodophenyl)-2-(4-nitro-phenyl)-2H-5-tetrazolio]-1,3-benzene sulfonate) (WST-1, #MK400, TaKaRa Bio) at 37° C. for 2 hours, and absorbance was measured at 450 nm. All experiments were performed in quadruplicate.

PD-L1 = PD-L1 expression on cell membrane of H1299 and PC9 cells (immunocytochemistry, Western blot); type: cell-based, human; details: for PD-L1 expression restoration on the cell membrane by FOXM1 overexpression, by: TST 5 μM 48 hours in the presence of IFNγ; for reduction in the PD-L1 levels (cell membrane): TST in the presence of IFNγ, vs DMSO control
Description: (§1) Cells were lysed in RIPA buffer supplemented with complete mini protease inhibitor cocktail (#04693124001; Roche, Basel, Switzerland) and kept on ice for 30 minutes. Equal amounts of protein were evenly loaded and analyzed by sodium dodecyl sulfate-polyacrylamide gel electrophoresis (SDS-PAGE), and transferred to polyvinylidene difluoride (PVDF) membranes (#IPVH 00010; Millipore, Billerica, MA, USA) at 100 V for 1 hour. Primary antibodies (Santa Cruz Biotechnology, Texas, USA) specific for FOXM1 (#sc-271746), cyclin E1 (#sc-481), α-tubulin (#sc-8035), and β-actin (#sc-47778); PD-L1 (#13684S), cyclin D1 (#2978S), cyclin B1 (#4138S), c-MYC (#5605S), and poly(ADP-ribose) polymerase (PARP, #9542S; Cell Signaling Technology, Beverly, MA, USA) were used to probe proteins of interest. A horseradish-peroxidase-conjugated secondary antibodies specific to the primary antibody was used to detect proteins using pico-enhanced chemiluminescence substrate (#34577; Thermo Fisher Scientific).
(§2) Cells were fixed in 4% paraformaldehyde (#30525-89-4; FUJIFILM Wako Chemical, Wako, Japan) for 15 minutes and blocked with 1% bovine serum albumin (BSA) in phosphate-buffered saline-0.01% Tween-20 (PBS-T) to reduce nonspecific antibody binding. Cells were then incubated overnight with an anti-PD-L1 antibody (#14598382; eBioscience, San Diego, CA, USA) diluted 1:200 and an anti-FOXM1 antibody (#sc-271746; Santa Cruz Biotechnology) diluted 1:50, followed by incubation with an Alexa Fluor 488-labeled secondary antibody (#A11029; Thermo Fisher Scientific) for 1 hour. Nuclei were stained with Hoechst 33342. After incubation, cells were washed with PBS and mounted on glass slides using Prolong Glass Antifade mounting medium (#P36982; Thermo Fisher Scientific). Confocal microscopy was performed using a Zeiss 730 Meta microscope (Carl Zeiss, Oberkochen, Germany) and analyzed using Axiovision software (Carl Zeiss).

FOXM1 = target: T1, FOXM1 (Homo sapiens, UniProt Q08050); experiment: FOXM1 protein levels and nuclear translocation (nuclear cytoplasmic fractionation, Western blot, ICC); type: cell-based; details: for FOXM1 overexpression decreased by: TST-treated cells; for restoration of FOXM1 levels by overexpression of FOXM1 in treated cells: compared to mock transfection
T1 construct: FLAG; expressed in transfected cells; host or cells: H1299 and PC9 cells
T1 sequence (Q08050 1-748 isoform Q08050-2): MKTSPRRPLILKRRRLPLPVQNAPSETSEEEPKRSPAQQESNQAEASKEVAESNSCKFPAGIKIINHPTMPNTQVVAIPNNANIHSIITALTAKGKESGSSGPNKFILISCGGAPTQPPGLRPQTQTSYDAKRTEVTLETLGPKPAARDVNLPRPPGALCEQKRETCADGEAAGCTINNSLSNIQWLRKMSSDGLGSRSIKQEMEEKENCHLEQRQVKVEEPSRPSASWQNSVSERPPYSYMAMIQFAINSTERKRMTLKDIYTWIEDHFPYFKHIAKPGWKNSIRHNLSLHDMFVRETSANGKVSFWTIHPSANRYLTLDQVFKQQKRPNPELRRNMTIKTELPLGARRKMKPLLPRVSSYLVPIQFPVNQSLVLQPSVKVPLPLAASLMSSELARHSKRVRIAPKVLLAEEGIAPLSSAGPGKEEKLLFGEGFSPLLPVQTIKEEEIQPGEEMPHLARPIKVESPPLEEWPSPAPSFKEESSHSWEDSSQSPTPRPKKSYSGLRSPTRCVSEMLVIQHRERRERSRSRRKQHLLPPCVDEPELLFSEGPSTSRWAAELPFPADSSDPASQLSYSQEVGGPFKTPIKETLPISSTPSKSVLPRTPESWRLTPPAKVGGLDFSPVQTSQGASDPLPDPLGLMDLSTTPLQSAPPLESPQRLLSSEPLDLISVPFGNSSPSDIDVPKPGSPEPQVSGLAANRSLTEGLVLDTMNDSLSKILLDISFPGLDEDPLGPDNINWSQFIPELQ
Description: To confirm protein subcellular localization, lysis of H1299 and PC9 cell pellets was performed in Buffer A (10 mM HEPES, 10 mM KCl, 1.5 mM MgCl2, 0.5 mM dithiothreitol (DTT), and 0.05% IGEPAL CA-630 (pH 7.9)) for 10 minutes. The Buffer A lysate was centrifuged at 1,000×g for 10 minutes at 4° C. to collect the nuclear fraction. After removal of the cytosolic fraction, buffer B containing 5 mM HEPES, 0.2 mM EDTA, 1.5 mM MgCl2, 0.5 mM DTT, and 26% glycerol (v/v) (pH 7.9) was added to the nuclear fraction and lysed on ice for 30 minutes.
as §1, §2

thiostrepton [TST] was tested, and the “apoptotic cell population (annexin V/PI positive cells)” value (H1299 and PC9 cells [1]) was “significantly increased in a time-dependent manner”, the cell proliferation (H1299 and PC9 cells [2]) was “decreased in a time-dependent manner” and the “elevated level of PD-L1 by pFLAG-FOXM1 overexpression decreased to” value (PD-L1; H1299) was 41.9%. The “PD-L1 expression restoration on the cell membrane by FOXM1 overexpression, by” value (PD-L1; H1299) was 38.7%, the “reduction in the PD-L1 levels (cell membrane)” value (PD-L1; H1299) was 87.23% and the “elevated level of PD-L1 by pFLAG-FOXM1 overexpression decreased to” value (PD-L1; PC9) was 68.0%. For the same substance, the “PD-L1 expression restoration on the cell membrane by FOXM1 overexpression, by” value (PD-L1; PC9) was 46%, the “reduction in the PD-L1 levels (cell membrane)” value (PD-L1; PC9) was 85.82% and the “FOXM1 overexpression decreased by” value (FOXM1; H1299) was 63.7%. For the same substance, the “restoration of FOXM1 levels by overexpression of FOXM1 in treated cells” value (FOXM1; H1299) was 84.33%, the “protein levels and nuclear translocation of FOXM1” value (FOXM1; H1299 and PC9, TST 5 μM in the presence of IFN-γ 20 ng mL-1, or siFOXM1) was “decreased the protein levels and nuclear translocation of FOXM1” and the “FOXM1 overexpression decreased by” value (FOXM1; PC9) was 44%. For the same substance, the “restoration of FOXM1 levels by overexpression of FOXM1 in treated cells” value (FOXM1; PC9) was 57.56%.
